Measurements as given in US20140271831A1, “RACECADOTRIL LIQUID COMPOSITIONS” (McNeil-PPC, Inc., priority 2013, published 2014).

Legend:
[1] = Stability of Racecadotril in Water; format: physicochemical
Procedure: (§1) For comparative purposes, the stability of racecadotril was tested at room temperature and at 40° C. • 1. Pipet 1 mL of Racecadotril solution into a 100 mL volumetric flask (V.F.) • 2. Dilute to volume with the same buffer used in the solution preparation. • 3. […] Parameters may be modified to optimize chromatography. • The assay of Racecadotril is determined by using the external standard injected. The degradation products levels are determined by % peak area relative to the Racecadotril peak. [table] [table] Mobil Phase A: Phosphate buffer, pH 2.5 (Buffer prep: dissolve 1 g of potassium dihydrogen phosphate in water, adjust to pH 2.5 with phosphoric acid, dilute to 1000 mL with water) Mobil Phase B: 100% Acetonitrile

[2] = Stability of Racecadotril in Buffer Solutions; format: physicochemical
Procedure: as §1, with “analyzed when solubilized in pH 4.5 Acetate buffer” for “tested at room temperature”, “pH 4.5 Citrate buffer (Table 3).” for “at 40° C.”

[3] = Stability of Racecadotril in Beta-Hydroxypropyl-Cyclodextrin (Beta-HPCD); format: physicochemical
Procedure: as §1, with “Formulations” for “For comparative purposes, the stability”, “in beta-hydroxypropyl-cyclodextrin were evaluated (Table 4).” for “was tested at room temperature and at 40° C.”

[4] = Solubility of racecadotril in water, buffer and Beta-HPCD (statements); format: physicochemical
[5] = cited from earlier work

Racecadotril (%) in Water at 40° C. ([1]; 1 Week): 0%
Racecadotril (%) in Water at Room Temperature ([1]; 1 Week): 1.0%
Racecadotril (%) in Water at 40° C. ([1]; 2 Weeks): 0.2%
Racecadotril (%) in Water at Room Temperature ([1]; 2 Weeks): 0.0%
Racecadotril (%) in Water at Room Temperature ([1]; 12 Hours): 44.9%
Racecadotril (%) in Water at 40° C. ([1]; Initial): 78.88%
Racecadotril (%) in Water at Room Temperature ([1]; Initial): 74.88%
racecadotril present ([1]; in water, at 1 week): less than 1%
stability of racecadotril in water ([1]; room temperature and 40° C., after 12 hours): unstable
Racecadotril in pH 4.5 Acetate Buffer at 40° C. (% Racecadotril) ([2]; 1 Week): 96.7%
Racecadotril in pH 4.5 Citrate Buffer at 40° C. (% Racecadotril) ([2]; 1 Week): 95.3%
Racecadotril in pH 4.5 Acetate Buffer at 40° C. (% Racecadotril) ([2]; 2 Weeks): 93.3%
Racecadotril in pH 4.5 Citrate Buffer at 40° C. (% Racecadotril) ([2]; 2 Weeks): 91.2%
Racecadotril in pH 4.5 Acetate Buffer at 40° C. (% Racecadotril) ([2]; 3 Weeks): 91.5%
Racecadotril in pH 4.5 Citrate Buffer at 40° C. (% Racecadotril) ([2]; 3 Weeks): 89.0%
Racecadotril in pH 4.5 Acetate Buffer at 40° C. (% Racecadotril) ([2]; 4 Weeks): 88.0%
Racecadotril in pH 4.5 Citrate Buffer at 40° C. (% Racecadotril) ([2]; 4 Weeks): 85.4%
Racecadotril in pH 4.5 Acetate Buffer at 40° C. (% Racecadotril) ([2]; 12 Hours): 99.69%
Racecadotril in pH 4.5 Citrate Buffer at 40° C. (% Racecadotril) ([2]; 12 Hours): 99.63%
stability in buffer compared with water ([2]; 40° C. and 4 weeks): more stable in a buffer than in water
Racecadotril in pH 4.5 Acetate Buffer at 40° C. (% Racecadotril) ([2]; Initial): 99.86%
Racecadotril in pH 4.5 Citrate Buffer at 40° C. (% Racecadotril) ([2]; Initial): 99.74%
Racecadotril in Beta-HPCD at 40° C. (%) with pH Adjustment to 4.5, Acetate Buffer ([3]; 1 Week): 96.16%
Racecadotril in Beta-HPCD at 40° C. (%) with pH Adjustment to 4.5, Citrate Buffer ([3]; 1 Week): 96.20%
Racecadotril in Beta-HPCD at 40° C. (%) without pH Adjustment, Acetate Buffer ([3]; 1 Week): 94.1%
Racecadotril in Beta-HPCD at 40° C. (%) without pH Adjustment, Citrate Buffer ([3]; 1 Week): 93.6%
Racecadotril in Beta-HPCD at 40° C. (%) with pH Adjustment to 4.5, Acetate Buffer ([3]; 2 Weeks): 92.7%
Racecadotril in Beta-HPCD at 40° C. (%) with pH Adjustment to 4.5, Citrate Buffer ([3]; 2 Weeks): 92.91%
Racecadotril in Beta-HPCD at 40° C. (%) with pH Adjustment to 4.5, Acetate Buffer ([3]; 3 Weeks): 88.95%
Racecadotril in Beta-HPCD at 40° C. (%) with pH Adjustment to 4.5, Citrate Buffer ([3]; 3 Weeks): 89.59%
Racecadotril in Beta-HPCD at 40° C. (%) with pH Adjustment to 4.5, Acetate Buffer ([3]; 4 Weeks): 85.84%
Racecadotril in Beta-HPCD at 40° C. (%) with pH Adjustment to 4.5, Citrate Buffer ([3]; 4 Weeks): 86.80%
Racecadotril in Beta-HPCD at 40° C. (%) with pH Adjustment to 4.5, Acetate Buffer ([3]; 12 Hours): 98.07%
Racecadotril in Beta-HPCD at 40° C. (%) with pH Adjustment to 4.5, Citrate Buffer ([3]; 12 Hours): 98.12%
Racecadotril in Beta-HPCD at 40° C. (%) without pH Adjustment, Acetate Buffer ([3]; 12 Hours): 96.9%
Racecadotril in Beta-HPCD at 40° C. (%) without pH Adjustment, Citrate Buffer ([3]; 12 Hours): 96.9%
Racecadotril in Beta-HPCD at 40° C. (%) with pH Adjustment to 4.5, Acetate Buffer ([3]; Initial): 99.58%
Racecadotril in Beta-HPCD at 40° C. (%) with pH Adjustment to 4.5, Citrate Buffer ([3]; Initial): 99.58%
Racecadotril in Beta-HPCD at 40° C. (%) without pH Adjustment, Acetate Buffer ([3]; Initial): 99.5%
Racecadotril in Beta-HPCD at 40° C. (%) without pH Adjustment, Citrate Buffer ([3]; Initial): 99.3%
solubility in buffer compared with water [4]: more soluble in buffer than in water
solubility utilizing the Beta-HPCD compared with buffers alone [4]: higher solubility
Compound: CC(=O)SCC(Cc1ccccc1)C(=O)NCC(=O)OCc1ccccc1 (racemic) [Racecadotril]
stability in Beta-HPCD compared with buffers alone [3]: stability is similar to that in buffers alone
water solubility [5]: low water solubility
